Laboratory results as given in the NIST ThermoML archive (doi:10.1021/je800110r).
± gives the expanded uncertainty stated by the source.

Conditions: 323.15 K, Liquid, Vibrating tube method

CCCCCCCCCC [decane]
Conditions | mass density [kg/m3]
13966 kPa | 719 ± 2
13981 kPa | 719.1 ± 2
14001 kPa | 719 ± 2
14021 kPa | 719 ± 2
14043 kPa | 719 ± 2
14066 kPa | 719.2 ± 2
14084 kPa | 719.2 ± 2
14099 kPa | 719.1 ± 2
14124 kPa | 719.2 ± 2
14140 kPa | 719.3 ± 2
14160 kPa | 719.2 ± 2
14173 kPa | 719.2 ± 2
14274 kPa | 719.2 ± 2
14317 kPa | 719.3 ± 2
14348 kPa | 719.5 ± 2
14364 kPa | 719.3 ± 2
14385 kPa | 719.4 ± 2
14404 kPa | 719.4 ± 2
14424 kPa | 719.4 ± 2
14622 kPa | 719.6 ± 2
14631 kPa | 719.5 ± 2
14647 kPa | 719.5 ± 2
14657 kPa | 719.7 ± 2
14679 kPa | 719.6 ± 2
14688 kPa | 719.6 ± 2
14701 kPa | 719.6 ± 2
14711 kPa | 719.7 ± 2
14725 kPa | 719.7 ± 2
14741 kPa | 719.6 ± 2
14753 kPa | 719.7 ± 2
15015 kPa | 719.9 ± 2
15023 kPa | 719.9 ± 2
15033 kPa | 719.8 ± 2
15047 kPa | 720 ± 2
15058 kPa | 719.9 ± 2
15068 kPa | 719.9 ± 2
15085 kPa | 720 ± 2
15095 kPa | 719.9 ± 2
15112 kPa | 720 ± 2
15120 kPa | 719.9 ± 2
15130 kPa | 719.9 ± 2
15143 kPa | 720.1 ± 2
15159 kPa | 720 ± 2
15170 kPa | 720 ± 2
15184 kPa | 720 ± 2
15196 kPa | 720.1 ± 2
15211 kPa | 720 ± 2
15222 kPa | 720 ± 2
15237 kPa | 720 ± 2
15249 kPa | 720 ± 2
15266 kPa | 720.1 ± 2
15275 kPa | 720.1 ± 2
15286 kPa | 720 ± 2
15303 kPa | 720.2 ± 2
15312 kPa | 720.1 ± 2
15326 kPa | 720.1 ± 2
15340 kPa | 720.2 ± 2
15388 kPa | 720.2 ± 2
15397 kPa | 720.2 ± 2
15411 kPa | 720.2 ± 2
15423 kPa | 720.2 ± 2
15686 kPa | 720.4 ± 2
15697 kPa | 720.5 ± 2
15712 kPa | 720.4 ± 2
15721 kPa | 720.5 ± 2
16291 kPa | 721 ± 2
16333 kPa | 721 ± 2
16345 kPa | 721.1 ± 2
16357 kPa | 720.9 ± 2
16371 kPa | 721.1 ± 2
16383 kPa | 720.9 ± 2
16398 kPa | 721.1 ± 2
16410 kPa | 720.9 ± 2
16426 kPa | 721.1 ± 2
16436 kPa | 721.1 ± 2
16448 kPa | 721.1 ± 2
16460 kPa | 721.2 ± 2
16473 kPa | 721 ± 2
16595 kPa | 721.1 ± 2
16627 kPa | 721.2 ± 2
16637 kPa | 721.2 ± 2
16673 kPa | 721.2 ± 2
16691 kPa | 721.2 ± 2
16708 kPa | 721.1 ± 2
16721 kPa | 721.3 ± 2
16735 kPa | 721.2 ± 2
16752 kPa | 721.2 ± 2
16764 kPa | 721.2 ± 2
16784 kPa | 721.3 ± 2
16797 kPa | 721.3 ± 2
16817 kPa | 721.4 ± 2
16829 kPa | 721.3 ± 2
16849 kPa | 721.4 ± 2
16864 kPa | 721.5 ± 2
16876 kPa | 721.4 ± 2
16889 kPa | 721.3 ± 2
16910 kPa | 721.3 ± 2
16921 kPa | 721.4 ± 2
16934 kPa | 721.4 ± 2
16951 kPa | 721.4 ± 2
16964 kPa | 721.4 ± 2
16980 kPa | 721.5 ± 2
16995 kPa | 721.4 ± 2
17043 kPa | 721.5 ± 2
17058 kPa | 721.4 ± 2
17077 kPa | 721.6 ± 2
17095 kPa | 721.5 ± 2
17112 kPa | 721.4 ± 2
17130 kPa | 721.6 ± 2
17141 kPa | 721.5 ± 2
17157 kPa | 721.6 ± 2
17172 kPa | 721.4 ± 2
17190 kPa | 721.6 ± 2
17203 kPa | 721.6 ± 2
17223 kPa | 721.6 ± 2
17241 kPa | 721.6 ± 2
17254 kPa | 721.7 ± 2
17628 kPa | 722 ± 2
18716 kPa | 722.8 ± 2
18779 kPa | 722.8 ± 2
18862 kPa | 722.9 ± 2
18883 kPa | 722.8 ± 2
19079 kPa | 723 ± 2
19095 kPa | 723.2 ± 2
19120 kPa | 723 ± 2
19140 kPa | 723.1 ± 2
19159 kPa | 723.1 ± 2
19176 kPa | 723.2 ± 2
19198 kPa | 723.2 ± 2
19220 kPa | 723.2 ± 2
19240 kPa | 723.2 ± 2
19286 kPa | 723.3 ± 2
19330 kPa | 723.3 ± 2
19527 kPa | 723.5 ± 2
19547 kPa | 723.4 ± 2
19614 kPa | 723.5 ± 2
19699 kPa | 723.6 ± 2
